Test results as given in PubChem BioAssay AID248 (DTP/NCI, 2004).
Values joined by “and” are separate entries in the source; they are usually repeats but may differ in a detail not shown here. Equal entries are not always repeated. Inconclusive results and toxic doses are left out. Cut-off read from the data, not from the text of the source: active = T/C of 150% or more; inactive = T/C below 125%.

Test system: L1210 leukemia ip in BDF1 mice, survival T/C
Experiment: NCI In Vivo Anticancer Drug Screen. Data for tumor model L1210 Leukemia (intraperitoneal) in B6D2F1 (BDF1) mice
Settings: endpoint: mean survival time, higher = longer survival
Method in brief: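 Transplantable tumor model; survival measured in treated vs vehicle control mice. Value = treated/control.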

[1] = dose: 25.0 mg/kg/injection, schedule: Q01DX009 (ip), vehicle: Klucel (hydroxypropylcellulose) (HPC)
[2] = dose: 25.0 mg/kg/injection, schedule: Q04DX003 (ip), vehicle: Klucel (hydroxypropylcellulose) (HPC)
[3] = dose: 50.0 mg/kg/injection, schedule: Q04DX003 (ip), vehicle: Klucel (hydroxypropylcellulose) (HPC)
[4] = dose: 100.0 mg/kg/injection, schedule: Q01DX009 (ip), vehicle: saline with Tween-80
[5] = dose: 200.0 mg/kg/injection, schedule: Q01DX009 (ip), vehicle: saline with Tween-80
[6] = dose: 400.0 mg/kg/injection, schedule: Q01DX009 (ip), vehicle: saline with Tween-80
[7] = dose: 100.0 mg/kg/injection, schedule: Q04DX003 (ip), vehicle: saline with Tween-80
[8] = dose: 200.0 mg/kg/injection, schedule: Q04DX003 (ip), vehicle: saline with Tween-80
[9] = dose: 400.0 mg/kg/injection, schedule: Q04DX003 (ip), vehicle: saline with Tween-80
[10] = dose: 100.0 mg/kg/injection, schedule: Q01DX009 (ip), vehicle: other
[11] = dose: 200.0 mg/kg/injection, schedule: Q01DX009 (ip), vehicle: other
[12] = dose: 400.0 mg/kg/injection, schedule: Q01DX009 (ip), vehicle: other
[13] = dose: 50.0 mg/kg/injection, schedule: Q01DX009 (ip), vehicle: Klucel (hydroxypropylcellulose) (HPC)
[14] = dose: 100.0 mg/kg/injection, schedule: Q01DX009 (ip), vehicle: Klucel (hydroxypropylcellulose) (HPC)
[15] = dose: 100.0 mg/kg/injection, schedule: Q04DX003 (ip), vehicle: Klucel (hydroxypropylcellulose) (HPC)
[16] = dose: 200.0 mg/kg/injection, schedule: Q04DX003 (ip), vehicle: Klucel (hydroxypropylcellulose) (HPC)
[17] = dose: 400.0 mg/kg/injection, schedule: Q04DX003 (ip), vehicle: Klucel (hydroxypropylcellulose) (HPC)
[18] = dose: 25.0 mg/kg/injection, schedule: Q01DX009 (ip), vehicle: saline with Tween-80
[19] = dose: 50.0 mg/kg/injection, schedule: Q01DX009 (ip), vehicle: saline with Tween-80
[20] = dose: 100.0 mg/kg/injection, schedule: Q04DX002 (ip), vehicle: saline
[21] = dose: 100.0 mg/kg/injection, schedule: Q04DX002 (ip), vehicle: Klucel (hydroxypropylcellulose) (HPC)
[22] = dose: 200.0 mg/kg/injection, schedule: Q04DX002 (ip), vehicle: Klucel (hydroxypropylcellulose) (HPC)
[23] = dose: 400.0 mg/kg/injection, schedule: Q04DX002 (ip), vehicle: Klucel (hydroxypropylcellulose) (HPC)
[24] = dose: 100.0 mg/kg/injection, schedule: Q01DX001 (ip), vehicle: saline

Measured: T/C

CC(=O)NC(C)(C)CC(C)(C)C
inactive: dose: 12.5 mg/kg/injection, schedule: Q01DX009 (ip), vehicle: Klucel (hydroxypropylcellulose) (HPC) 99 % of control | dose: 12.5 mg/kg/injection, schedule: Q04DX003 (ip), vehicle: Klucel (hydroxypropylcellulose) (HPC) 98 % of control | dose: 25.0 mg/kg/injection, schedule: Q01DX001 (ip), vehicle: saline with Tween-80 98 % of control | [1] 101 % of control | [2] 96 % of control | dose: 50.0 mg/kg/injection, schedule: Q01DX001 (ip), vehicle: saline with Tween-80 103 % of control | [3] 93 % of control | dose: 100.0 mg/kg/injection, schedule: Q01DX001 (ip), vehicle: saline with Tween-80 105 % of control and 119 % of control

O=C(/C(Br)=C/c1ccccc1)/C(Br)=C/c1ccccc1
inactive: dose: 100.0 mg/kg/injection, schedule: Q01DX001 (ip), vehicle: saline sonified 97 % of control | [4] 109 % of control | dose: 200.0 mg/kg/injection, schedule: Q01DX001 (ip), vehicle: saline sonified 98 % of control | [5] 93 % of control | dose: 400.0 mg/kg/injection, schedule: Q01DX001 (ip), vehicle: saline sonified 93 % of control | [6] 94 % of control

CCCCCOC(=O)Nc1cccc(OC(=O)NC)c1
inactive: [4] 105 % of control | [5] 96 % of control | [6] 97 % of control

COc1ccc(N2CCN(/C=C/C(=O)c3ccc(C)cc3C)CC2)cc1
inactive: [7] 97 % of control | [8] 95 % of control | [9] 106 % of control

Cn1c(=O)n(OS(=O)(=O)c2ccccc2)c(=O)c2ccccc21
inactive: [10] 107 % of control | [11] 96 % of control | [12] 98 % of control

CCOC(=O)/C(C#N)=C\c1ccccc1Cl
inactive: [13] 98 % of control | [14] 95 % of control | [15] 91 % of control | dose: 200.0 mg/kg/injection, schedule: Q01DX009 (ip), vehicle: Klucel (hydroxypropylcellulose) (HPC) 100 % of control | [16] 99 % of control

CC(C)CCCC(C)C1CCC2C3CC(=O)NC4CC(Br)CCC4(C)C3CCC12C (stereo not drawn)
inactive: dose: 100.0 mg/kg/injection, schedule: Q04DX003 (ip), vehicle: acetone 93 % of control | dose: 200.0 mg/kg/injection, schedule: Q04DX003 (ip), vehicle: acetone 102 % of control | dose: 400.0 mg/kg/injection, schedule: Q04DX003 (ip), vehicle: acetone 98 % of control

CC1(C)c2ccccc2-c2nc3ccccc3nc2C1O (stereo not drawn)
inactive: dose: 100.0 mg/kg/injection, schedule: Q01DX001 (ip), vehicle: Klucel (hydroxypropylcellulose) (HPC) 94 % of control | dose: 200.0 mg/kg/injection, schedule: Q01DX001 (ip), vehicle: Klucel (hydroxypropylcellulose) (HPC) 97 % of control | dose: 400.0 mg/kg/injection, schedule: Q01DX001 (ip), vehicle: Klucel (hydroxypropylcellulose) (HPC) 103 % of control

CCCCCCC/C=N/NC(=O)c1ccccc1
inactive: [15] 105 % of control | [16] 109 % of control | [17] 98 % of control

NC(=O)C1(c2ccccc2)CCN(Cc2ccccc2)CC1
inactive: [18] 100 % of control | [19] 98 % of control | dose: 50.0 mg/kg/injection, schedule: Q04DX003 (ip), vehicle: saline with Tween-80 95 % of control | [4] 94 % of control | [7] 92 % of control

CC1CC2OC(=O)C(O)(CO)C2CC2(C)C(=O)C=CC12 (stereo not drawn)
inactive: dose: 25.0 mg/kg/injection, schedule: Q04DX002 (ip), vehicle: saline 102 % of control | dose: 50.0 mg/kg/injection, schedule: Q04DX002 (ip), vehicle: saline 124 % of control | [20] 120 % of control

COC(C(=O)O)c1cccc2ccccc12 (stereo not drawn)
inactive: [21] 113 % of control | [22] 109 % of control | [23] 98 % of control

CC(C)(CC(=O)O)NC(=O)CN
inactive: [20] 94 % of control | dose: 200.0 mg/kg/injection, schedule: Q04DX002 (ip), vehicle: saline 91 % of control | dose: 400.0 mg/kg/injection, schedule: Q04DX002 (ip), vehicle: saline 97 % of control

CN(C)/N=C1\C(=O)Nc2ccccc21
inactive: [1] 101 % of control | [13] 117 % of control | [3] 104 % of control | [14] 102 % of control and 103 % of control | [15] 106 % of control | [16] 97 % of control | [17] 103 % of control

C[n+]1cc2c(CO)cc(CO)cc2c2ccccc21
inactive: dose: 75.0 mg/kg/injection, schedule: Q01DX001 (ip), vehicle: saline 97 % of control | dose: 150.0 mg/kg/injection, schedule: Q01DX001 (ip), vehicle: saline 95 % of control | dose: 300.0 mg/kg/injection, schedule: Q01DX001 (ip), vehicle: saline 97 % of control

Cc1c(C)c(C)c(CN2CC(=O)c3ccccc3C2=O)c(C)c1C
inactive: [21] 89 % of control | [22] 104 % of control | [23] 89 % of control

CC(=O)c1ccc(OC(=O)Nc2ccccc2F)cc1
inactive: [18] 112 % of control | [19] 111 % of control | [4] 96 % of control and 110 % of control

Nc1ncnc(N)c1NC(=O)c1ccc(OCCCCOc2ccccc2)c(Cl)c1
inactive: [7] 101 % of control | [8] 102 % of control | [9] 96 % of control

[N-]=[N+]=Nc1nc(Cl)nc2c1ncn2Cc1ccccc1
inactive: dose: 75.0 mg/kg/injection, schedule: Q01DX001 (ip), vehicle: other 97 % of control

OC(C1CC2CCC1C2)(C1CC2CCC1C2)C1CC2CCC1C2 (stereo not drawn)
inactive: [4] 92 % of control | [15] 94 % of control | [5] 97 % of control | [16] 96 % of control | [6] 90 % of control | [17] 97 % of control

CCOC(=O)C1(C(=O)OCC)C(C)CC2Nc3ccccc3C(=O)N21 (stereo not drawn)
inactive: [2] 87 % of control | [3] 91 % of control | [15] 91 % of control

CC(C)(C)C#N
inactive: [24] 109 % of control | dose: 200.0 mg/kg/injection, schedule: Q01DX001 (ip), vehicle: saline 101 % of control | dose: 400.0 mg/kg/injection, schedule: Q01DX001 (ip), vehicle: saline 95 % of control

CCOC(=O)C(c1ccccc1)c1ccccc1
inactive: [10] 102 % of control | [11] 94 % of control | [12] 93 % of control

CCN(CC)c1ccc(SSc2ccc(N(CC)CC)cc2)cc1
inactive: dose: 25.0 mg/kg/injection, schedule: Q01DX001 (ip), vehicle: saline 105 % of control | dose: 50.0 mg/kg/injection, schedule: Q01DX001 (ip), vehicle: saline 100 % of control | [24] 100 % of control

COC(=O)C(C(=O)OC)C(Br)(OC(C)=O)OC(C)=O
inactive: [7] 98 % of control | [8] 100 % of control | [9] 106 % of control

CC1(C)OC2C(C(=O)O)OC(n3cnc4c(N)ncnc43)C2O1 (stereo not drawn)
inactive: dose: 100.0 mg/kg/injection, schedule: Q01DX005 (ip), vehicle: saline 102 % of control | dose: 200.0 mg/kg/injection, schedule: Q01DX005 (ip), vehicle: saline 104 % of control

ClP1(N2CCCCC2)=NP(Cl)(N2CCCCC2)=NP(Cl)(N2CCCCC2)=NP(Cl)(N2CCCCC2)=N1 (stereo not drawn)
inactive: dose: 100.0 mg/kg/injection, schedule: Q04DX003 (ip), vehicle: saline 105 % of control | dose: 200.0 mg/kg/injection, schedule: Q04DX003 (ip), vehicle: saline 94 % of control | dose: 400.0 mg/kg/injection, schedule: Q04DX003 (ip), vehicle: saline 94 % of control

CC(C)COC(=O)c1cc(O)c(O)c(O)c1
inactive: [4] 100 % of control | [7] 97 % of control | [5] 107 % of control | [8] 105 % of control | [6] 107 % of control | [9] 95 % of control
